Where two headings read alike, the source gives them in different places.
Assays:
in vivo [1] = conditions: for exposure in the plasma, fold higher than CBD, L1, and L3: oral
Description: (§1) Animal experiments were conducted in accordance with the National Institutes of Health Laboratory Animal Care and Use Guidelines. Male SPF SD rats from the Animal Center of Anhui Medical University (Hefei, China) were used for the experiment. […] At each time point (0.5, 1, 2, 4, and 8 h) after administration, samples of brain, heart, kidney, liver, lung, and spleen were collected from each rat for tissue distribution study. While for pharmacokinetic study, the plasma samples were gathered from the suborbital vein at 5, 15, 30, and 45 min and 1, 2, 4, 8, and 12 h after oral administration. The maintenance and treatment procedures for experimental animals were approved by the Animal Care and Use Committee of Anhui Medical University (approval number: LLSC20190274). Room temperature was 22 ± 2 °C, using a light/dark (12: 12 h) cycle, the animals were free to consume food and water one day before the experiment.
(§2) An aliquot of 60 μL plasma sample was spiked with 60 µL aqueous ascorbic acid (0.1%) and 20 μL of IS working solution (300 ng/mL). After vortexing for 30 s, 400 µL MTBE was added to plasma sample for liquid–liquid extraction. The mixture was vigorously mixed for 10 min and centrifuged at 12,000 rpm at 4 °C for 5 min; approximately 400 µL of supernatant was transferred to a clean 1.5 mL centrifuge tube and dried under a gentle stream of nitrogen gas. Subsequently, the residue was reconstituted with 100 µL of MeOH/water (7: 3, v/v), vortex-mixed for 2 min, and followed by centrifugation at 12,000 rpm for 20 min. Finally, 20 μL of the supernatant was injected into the UPLC-HRMS system for measurement. The tissue sample (100 mg) was homogenized in normal saline solution (1 mL), 600 μL homogenate sample was spiked with 60 µL aqueous ascorbic acid (0.1%) and 50 μL of the IS working solution (1000 ng/mL), and 1.2 mL MTBE was added for extraction. Then, 1 mL of supernatant was dried and proceeded as plasma sample pretreatment (Figure S1).
(§3) Quantitative analysis using Dionex Ultimate 3000 chromatography hyphenated to Q-Exactive plus Orbitrap mass spectrometer system (Thermo Fisher Scientific, Waltham, MA, USA). The analytes were detected in Full MS/dd-MS^2 mode to choose the parent ion and optimize the retention time; then, we used the parallel reaction monitoring (PRM) mode through positive ionization condition for determination. Xcalibur 4.1 software (Thermo Fisher Scientific) was used for data acquisition and processing.
Chromatographic separation was achieved on a Shimadzu-pack GIST column (50 mm × 2.1 mm, 2 μm, Shimadzu Company, Kyoto, Japan). Binary mobile solvents consisted of water (containing 0.1% FA, v/v) (A) and acetonitrile (B), the gradient program was as follows: 0 min 60% A → 1 min 60% A → 1.5 min 20% A → 7 min 20% A → 7.1 min 60% A → 8.5 min 60% A. The flow rate was set at 0.30 mL/min and the column temperature was 40 °C. The typical source parameters were optimized as follows: spray voltage: 4500 V; capillary temperature: 320 °C; auxiliary gas heater temperature: 200 °C; pressure of sheath gas: 320 kPa; auxiliary gas: 50 kPa.
Phoenix/WinNonlin software (version 6.4; Pharsight, Mountain View, CA, USA) was used to calculate the AUC and other pharmacokinetic parameters in plasma or tissue for each drug in a non-compartmental model.

eeAChE = eeAChE from electric eel, cited from earlier work; for IC50: mean ± SEM, at least three experiments
[2] = cited from earlier work
eqBuChE = eqBuChE from horse serum; mean ± SEM, at least three experiments; read-out: IC50 BuChE; cited from earlier work
in vivo [3] = conditions: for Cmax / Kp / selectivity ratio: male, SD, rat, in vivo; for Cmax / Kp: po; for Cmax: 15 mg/kg; for Kp: AUCtissue/AUCplasma; for AUCbrain: brain; for AUCheart: heart; for AUCkidney: kidney; for AUCliver: liver; for AUClung: lung; for AUCspleen: spleen
Description: Drug exposure in tissue is calculated by drug exposure in the plasma and tissue/plasma distribution coefficient (Kp), as shown in Equation (1):Drug exposure in the tissue = drug exposure in the plasma × Kp(1) where drug exposure in the plasma and the tissue can be calculated by the drug concentration vs. time curve, and Kp values can be calculated by Ctissue/Cplasma or AUCtissue/AUCplasma. […] It is worth mentioning that Kp can be evaluated by the ratio of free fraction of drug candidate in plasma vs. in tissues in steady state. Nevertheless, this assessment is based on “free drug hypothesis” theory, which presumes that free drug concentration in tissue is close to that in plasma.
Dose escalation tests are always evaluated during clinical phase I/II trials, and MTD is constantly associated with drug exposure in certain toxicity-related organs. […] To evaluate the balance between efficacy and toxicity for drug candidates, drug tissue selectivity is a crucial parameter and defined as follows in Equation (2), where the sum of Ctissue or AUCtissue is total drug concentration or AUC in different tissues. Drug tissue selectivity = Ctissue/ΣCtissue or AUCtissue/ΣAUCtissue(2)
as §1, §2, §3
Chromatographic separation was achieved on a Shimadzu-pack GIST column (50 mm × 2.1 mm, 2 μm, Shimadzu Company, Kyoto, Japan).

[4] = male, SD, rat, in vivo, po, 15 mg/kg
[5] = rats, single intragastric 15 mg/kg, plasma

SMILES | AUC (in vivo [1]; [4]) [ng·h/mL] | AUC(0-inf) (in vivo [1]; [4]) [ng·h/mL] | AUC(0-t) (in vivo [1]; [4]) [ng·h/mL] | Cmax (in vivo [1]; [4]) [ng/mL] | MRT last (in vivo [1]; [4]) [h] | Tmax (in vivo [1]; [4]) [h] | half-life (in vivo [1]; [4]) [h] | CL (in vivo [1]; [5]) [mL/min/kg] | Vd (in vivo [1]; [5]) [L/kg] | IC50 (eeAChE) [nM] | IC50 (eqBuChE) [nM] | other results
C=C(C)[C@@H]1CCC(C)=C[C@H]1c1c(O)cc(CCCCC)cc1O [CBD, Cannabidiol, reference compound] | 158 | 168 ± 11.5 | 158 ± 10.6 | 48.9 ± 11 | 2.84 ± 0.23 | 1.2 ± 0.45 | 3.7 ± 1.26 | 1492 ± 107 | 474.16 ± 155.23 | 17100 ± 2430 | 670 ± 60 | Tmax (reported values) [2]: 0 to 4 h; t1/2 (reported values) [2]: 1.4 to 10.9 h
C=C(C)C1CCC(C)=CC1c1c(O)cc(CCCCC)cc1OC(=O)NC (stereo not shown) [Compound L1] | 191 | 197 ± 58 | 191 ± 58.7 | 120 ± 15.9 | 2.05 ± 0.47 | 0.22 ± 0.07 | 2.7 ± 1.27 | 1353 ± 361.8 | 319.94 ± 171.55 | 18900 ± 1110 | 128 ± 22 | metabolism to CBD observed in plasma (in vivo [1]; rats, intragastric administration): can be metabolized to produce CBD
C=C(C)C1CCC(C)=CC1c1c(O)cc(CCCCC)cc1OC(=O)N(C)CC (stereo not shown) [Compound L2] | – | – | – | 127 ± 23.6 | 3.44 ± 0.22 | 1.8 ± 0.45 | 2.64 ± 0.45 | 434.5 ± 74.8 | 99.38 ± 23.95 | 15000 ± 1020 | 77 ± 5 | exposure in the plasma, fold higher than CBD, L1, and L3 (in vivo [1]; rats): > 3 fold; Cmax (in vivo [3]): 56 ng/g; Kp (in vivo [3]; Kp brain, rats): 0.42; Kp (in vivo [3]; Kp heart, rats): 2.63; Kp (in vivo [3]; Kp kidney, rats): 5.51; Kp (in vivo [3]; Kp liver, rats): 5.3; Kp (in vivo [3]; Kp lung, rats): 3.27; Kp (in vivo [3]; Kp spleen, rats): 2.41; selectivity ratio (in vivo [3]; tissue selectivity in the brain, fold higher than L4, AUCtissue/ΣAUCtissue, L2 vs L4): 21; selectivity ratio (in vivo [3]; tissue selectivity in the kidney, fold lower than L4, AUCtissue/ΣAUCtissue, L2 vs L4): 1.2; selectivity ratio (in vivo [3]; tissue selectivity in the liver, fold lower than L4, AUCtissue/ΣAUCtissue, L2 vs L4): 1.8; AUCbrain (in vivo [3]; rats, oral 15 mg/kg): 213.8 ng·h/g; AUCheart (in vivo [3]; rats, oral 15 mg/kg): 1331.9 ng·h/g; AUCkidney (in vivo [3]; rats, oral 15 mg/kg): 2790.2 ng·h/g; AUCliver (in vivo [3]; rats, oral 15 mg/kg): 2684.5 ng·h/g; AUClung (in vivo [3]; rats, oral 15 mg/kg): 1655.0 ng·h/g; AUCspleen (in vivo [3]; rats, oral 15 mg/kg): 1220.9 ng·h/g; exposure in the kidney, fold lower than L4 (in vivo [3]; rats, oral 15 mg/kg, L2 vs L4): 2.8 fold; exposure in the liver, fold lower than L4 (in vivo [3]; rats, oral 15 mg/kg, L2 vs L4): 1.8 fold; brain concentration relative to L4 (in vivo [3]; rats, oral, L2 vs L4): fivefold higher
C=C(C)C1CCC(C)=CC1c1c(O)cc(CCCCC)cc1OC(=O)N1CCCC1 (stereo not shown) [Compound L3] | 182 | 200 ± 32.5 | 182 ± 13.9 | 60 ± 8.63 | 2.72 ± 0.6 | 0.95 ± 0.11 | 3.09 ± 1.52 | 1273 ± 194.7 | 320.94 ± 106.75 | – | 390 ± 40 | –
C=C(C)C1CCC(C)=CC1c1c(O)cc(CCCCC)cc1OC(=O)N(C)Cc1ccc(Cl)cc1 (stereo not shown) [Compound L4] | – | – | – | 211 ± 30.7 | 2.38 ± 0.21 | 0.8 ± 0.11 | 2.17 ± 0.19 | 483.2 ± 100 | 91.52 ± 22.81 | – | 5.3 ± 1.2 | exposure in the plasma, fold higher than CBD, L1, and L3 (in vivo [1]; rats): > 3 fold; Cmax (in vivo [3]): 19 ng/g; Kp (in vivo [3]; Kp brain, rats): 0.088; Kp (in vivo [3]; Kp heart, rats): 15.1; Kp (in vivo [3]; Kp kidney, rats): 15.7; Kp (in vivo [3]; Kp liver, rats): 10.1; Kp (in vivo [3]; Kp lung, rats): 15.1; Kp (in vivo [3]; Kp spleen, rats): 11.7; AUCbrain (in vivo [3]; rats, oral 15 mg/kg): 43.2 ng·h/g; AUCheart (in vivo [3]; rats, oral 15 mg/kg): 7431.3 ng·h/g; AUCkidney (in vivo [3]; rats, oral 15 mg/kg): 7723.4 ng·h/g; AUCliver (in vivo [3]; rats, oral 15 mg/kg): 4951.2 ng·h/g; AUClung (in vivo [3]; rats, oral 15 mg/kg): 7421.8 ng·h/g; AUCspleen (in vivo [3]; rats, oral 15 mg/kg): 5773.9 ng·h/g; Inhibition Rate % at 20 µM, AChE (eeAChE; at 20 µM): 21.4 ± 2.8%
C=C(C)[C@@H]1CCC(C)=C[C@H]1c1c(O)cc(CCCCC)cc1O [L1→CBD] | – | – | – | – | – | – | – | 1718.8 ± 707.3 | 577.46 ± 442.26 | – | – | AUC0-T (in vivo [1]; [5]): 165.91 ± 87.56 ng·h/mL; AUC0-∞ (in vivo [1]; [5]): 172.51 ± 84.52 ng·h/mL; Cmax (in vivo [1]; [5]): 94.59 ± 27.06 ng/mL; MRT0-T (in vivo [1]; [5]): 2.21 ± 0.42 h; Tmax (in vivo [1]; [5]): 0.27 ± 0.15 h; t1/2 (in vivo [1]; [5]): 3.43 ± 1.64 h
CNC(=O)Oc1ccc2c(c1)[C@]1(C)CCN(C)[C@@H]1N2C [physostigmine] | – | – | – | – | – | – | – | – | – | – | – | drug concentration in brains after oral vs intramuscular administration, times less [2]: 350 times; drug concentration in plasma after oral vs intramuscular administration, times less [2]: 200 times; bioavailability ([2]; first-pass metabolism): 2%
CCN(C)C(=O)Oc1cccc([C@H](C)N(C)C)c1 [rivastigmine, reference compound] | – | – | – | – | – | – | – | – | – | – | – | bioavailability [2]: 36–40%

From paper PMC11593952 (International Journal of Molecular Sciences, 2024)
